Results published in patent US6169104A, “Di-aryl ethers and their derivatives as anti-cancer agents” (Large Scale Biology Corporation, priority 1998, dated 2001).

How the values were obtained:
[1] = system: A549 (non-small cell lung); experiment: In vitro cytotoxicity screen, alamar Blue assay; format: cell-based; conditions: Homo sapiens, 168 h; A549; 7 days post exposure; read-out: IC50
Method: (§1) Human tumor cell lines were exposed continuously to varying concentrations of test agents, i.e., BTO-956, BTO-964, BTO966 and BTO-967) and the viability of the cells was measured at set time points (1, 3, and 7 days) using the alamar Blue™ assay. […] This fluorescence can be measured with a fluorimeter, whereby the signal is directly proportional to cell number.
(§2) Various tumor cell lines of human origin representing a wide diversity of cancer pheno- and genotypes were exposed in vitro to the agents to evaluate the drug's effective range. Tumor lines screened included MDA MB 231 (breast), MCF-7 (breast), MDA MB 468 (breast), Siha (squamous cell carcinoma), A549 (non-small cell lung), HL-60 (leukemia), Ovcar-3 (ovarian). The test agents were prepared in serial dilutions from 10 mM stock solutions in DMSO yielding a 66-fold dose range of 20 μM, 10 μM, 3 μM, 1 μM and 0.3 μM concentrations. In each case, cells were maintained at 37° C. under 5 percent CO2 in air. All cell lines were incubated in Dulbecco's modified Eagle medium (DMEM) supplemented with 10% heat-inactivated fetal bovine serum and graded doses of BTO-956, 964, 966, or 967. 5-Fluorouracil (5-FU) was included as a positive control in experiments with two of the cell lines. The experiments were conducted in 96-well tissue culture plates (Falcon) with an initial seeding density of 1000 cells per well in 250 μl aliquots. The next day, medium was replaced with 100 μl of drug dilutions in triplicate.
(§3) After a 7 day exposure to the various agents, the alamarBlue dye was diluted to 20% in DMEM, and 100 μl was added to each well. The cells were incubated for 8 hours until obvious color changes indicated sufficient amounts of reduced dye for quantitation. Relative cell number was evaluated by florimetry on a Millipore 2300 CytoFluor fluorescence measurement system. Measurements were taken directly from 96-well plates after excitation at 560 nm with concomitant emission at 590 nm.

MCF-7 (breast) = experiment: In vitro cytotoxicity screen, alamar Blue assay; format: cell-based; conditions: Homo sapiens, MCF7, 168 h, 7 days post exposure
Method: as §1, §2, §3

MDA MB 231 (breast) = experiment: In vitro cytotoxicity screen, alamar Blue assay; format: cell-based; conditions: Homo sapiens, 168 h; MDA MB 231; 7 days post exposure; read-out: IC50
Method: as §1, §2, §3

MDA MB 468 (breast) = experiment: In vitro cytotoxicity screen, alamar Blue assay; format: cell-based; conditions: Homo sapiens, 168 h, 7 days post exposure
Method: as §1, §2, §3

Ovcar-3 (ovarian) = experiment: In vitro cytotoxicity screen, alamar Blue assay; format: cell-based; conditions: Homo sapiens, 168 h, 7 days post exposure
Method: as §1, §2, §3

[2] = system: Siha (squamous cell carcinoma); experiment: In vitro cytotoxicity screen, alamar Blue assay; format: cell-based; conditions: Homo sapiens, 168 h, 7 days post exposure
Method: as §1, §2, §3

[3] = system: met-1 mouse mammary tumors; experiment: In vivo efficacy against met-1 mouse mammary tumors
Method: Mammary fat pads of Balb/c immunodeficient (nude) mice were implanted with 1 mm^3 of mammary tumor tissue. These mammary tumors originated from the met-1 mouse mammary tumor cell line and have been propagated by passaging in vivo. When palpable tumors appeared, animals were subdivided into various treatment groups and treated daily with intraperitoneal injections of control vehicle, BTO-967 (50 mg/kg), or BTO-964 (50 mg/kg). A group of untreated control animals was included in the study, because agents used in the vehicle for these test articles (DMSO/ethanol/CremophorEL/PEG 400, 1: 0.5 : 0.5: 6) were themselves found to have cytotoxic activity. Twice weekly, the volumes of the tumors in each animal in each group were measured to gather information on tumor growth (volume) as a function of type of treatment, dose, and time.

SMILES	IC50 [1] [µM]	IC50 (MCF-7 (breast)) [µM]	IC50 (MDA MB 231 (breast)) [µM]	IC50 (MDA MB 468 (breast)) [µM]	IC50 (Ovcar-3 (ovarian)) [µM]	IC50 [2] [µM]	response of Met-1 tumors to treatment ([3]; 50 mg/kg daily i.p.)	Tumor Volume (mm^3) ([3]; 50 mg/kg daily intraperitoneal, 4 weeks post initiation of treatment, mean ± SEM, vehicle 1238 ± 170, none 1570 ± 219)
COC(=S)c1cc(I)c(Oc2ccc(OC)cc2)c(I)c1 [BTO-967, methyl 3,5-diiodo-4-(4'-methoxyphenoxy)thiobenzoate]	5.5	1	2	1.5	0.8	20		
COc1ccc(Oc2c(I)cc(C=O)cc2I)cc1 [BTO-964, 3,5-Diiodo-4-(4'-methoxyphenoxy)benzadehyde]	> 20	2.4	2	4	1.8	17	positive response	876±126
